In patent publication US4725683A, “Fluorophenoxyphenoxypropionates and derivatives thereof” (The Dow Chemical Company, priority 1985, dated 1988):

Columns and labels:
Crabgrass = assay: Postemergent activity; type: in vivo
Procedure, shortened: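 Potted crabgrass plants grown to roughly 10 cms tall were sprayed to run-off with aqueous compositions of the test compound, which was first dissolved in acetone at twice the final concentration and then diluted with an equal volume of water containing 0.1 percent by weight TWEEN® 200 surfactant. Pots sprayed without toxicant served as controls. After two weeks under growth-favorable conditions, plant control was scored from 0 (no effect) to 100 (complete kill).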

Barnyard Grass = assay: Postemergent activity; type: in vivo
Procedure, shortened: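 Potted plants about 10 cms tall were sprayed to run-off with conventional equipment using aqueous compositions. These were made by dissolving the active ingredient in acetone at twice the final concentration and diluting with an equal volume of water containing 0.1 percent TWEEN® 200 surfactant. Toxicant-free sprays served as controls. After two weeks of growth, injury was scored from 0 (no effect) to 100 (complete kill).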

COC(=O)C(C)Oc1ccc(Oc2ccc(C(F)(F)F)cc2F)cc1 (stereo not drawn) [2-[4-(2-fluoro-4-trifluoromethylphenoxy)phenoxy]propionic acid methyl ester]
% Control (Crabgrass; 3.9 ppm): 90%
% Control (Crabgrass; 7.8 ppm): 100%
% Control (Crabgrass; 15.6 ppm): 100%
% Control (Crabgrass; 31.25 ppm): 100%
% Control (Crabgrass; 62.5 ppm): 100%
% Control (Crabgrass; 125 ppm): 100%
% Control (Barnyard Grass; 3.9 ppm): 50%
% Control (Barnyard Grass; 7.8 ppm): 100%
% Control (Barnyard Grass; 15.6 ppm): 100%
% Control (Barnyard Grass; 31.25 ppm): 100%
% Control (Barnyard Grass; 62.5 ppm): 100%
% Control (Barnyard Grass; 125 ppm): 100%
